Values quoted from earlier work in patent US20130261032A1, “ADDITIVE FOR SUBTERRANEAN TREATMENT” (SCHLUMBERGER TECHNOLOGY CORPORATION, priority 2012, published 2013).
Like-named read-outs stand apart in the source and are kept apart here.

SMILES: CCO [ethanol]
- acute oral toxicity, LD50 (in vivo, po): 7060 mg/kg

SMILES: C[N+](C)(C)CC(=O)[O-] [TMG, trimethyl glycine]
- acute oral toxicity, LD50 (oral): greater than 10,000 mg/kg

SMILES: CC(O)CO (stereo not drawn) [propylene glycol]
- acute oral toxicity, LD50 (oral): 20,000 mg/kg
